Data on 9 substances can be found in patent publication US9951110B2, “Neuropeptides useful as insecticides” (THE STATE OF ISRAEL, MINISTRY OF AGRICULTURE & RURAL …, priority 2013, dated 2018).

Square brackets hold non-standard residues; d marks the D form. Ends that are not written are not given here. * marks the point of attachment. Cyclohexyl = cyclohexyl group capping the N-terminus, C1CCC(*)CC1; Fmoc = O=C(OCC1c2ccccc2-c2ccccc21)*

Assay [1] deals with Spodoptera littoralis larvae. Kind of assay: Melanotropic inhibitory activity: injection with a stimulator (PBAN, PT, LPK, DH). Type of assay: in vivo. To be noted: for Melanotropic inhibitory activity, stimulator DH: injected with DH (diapause hormone); for Melanotropic inhibitory activity, stimulator DH / Melanotropic inhibitory activity, stimulator LPK / Melanotropic inhibitory activity, stimulator PBAN / Melanotropic inhibitory activity, stimulator PT: 100 pm; for Melanotropic inhibitory activity, stimulator LPK: injected with LPK (leucopyrokinin); for Melanotropic inhibitory activity, stimulator PBAN: injected with PBAN, inhibition = 100 minus % melanization with vs without peptide; for Melanotropic inhibitory activity, stimulator PT: injected with PT (pheromonotropin); for inhibition of melanin synthesis stimulated by LPK: stimulator LPK; for inhibition of melanin synthesis stimulated by PBAN: stimulator PBAN; for inhibition of melanin synthesis stimulated by PT: stimulator PT. An excerpt:
FIG. 12. is a graph showing the melanotropic inhibitory activity of the peptides of the invention against different stimulators of the PK/PBAN family: PBAN, PT (pheromonotropin), LPK (leucopyrokinin), DH (diapause hormone). • Degree of cuticular melanization is expressed as a percentage of the melanization obtained by injection the elicitor itself (PBAN, PT, LPK or DH) in the absence of the tested peptide (not shown). Statistical analysis compared the degree of melanization in the presence and absence of the tested peptide with any given elicitor. An asterisk indicates a significant difference between the degree of melanization obtained in the presence of the peptide. This assay is used to test the agonistic properties of the tested peptides (in adult females), and to determine the peptides melanotropic agonistic or antagonistic properties (in larvae). It was also used to determine the activity of peptides that were stored outdoors for different amounts of time. The peptides are injected into either adult female insects (e.g. moths) at photophase (when pheromone is not synthesized naturally, but the insect has the ability to produce pheromone upon stimulation with a agonist) or into 5th instar larvae. Agonistic properties were tested by injection of the peptides alone; antagonistic properties were determined by injection of the peptide together with a stimulator. The ability of the peptides to inhibit cuticular melanin synthesis was tested in Spodoptera littoralis larvae. Inhibitory activity was tested by injecting the peptides to Spodoptera littoralis larvae together with a given stimulator: PBAN, PT, LPK and DH. Inhibition is expressed as 100 minus the ratio in percentage (%) between the extents of cuticular melanization obtain in the presence and absence of the tested peptide (Table 2).

The subject of assay [2] is Heliothis peltigera female moths. Nature of the assay: Topical application: inhibition of sex pheromone biosynthesis (cuticular bioavailability). Type of assay: in vivo. As to conditions: for comparison of activity in IIS vs. tap water: topical application; for inhibition of pheromone biosynthesis / lowering of pheromone content compared to the solvent: 10 pmol. The protocol: FIG. 2. is a graph showing the effect of topically applied peptides on the inhibition of sex pheromone biosynthesis in Heliothis peltigera female moths. • The tested peptides are those listed in Table 1 (1-10, respectively). • Peptides were tested at a concentration of 10 pmol and were applied in IIS (0.5% ethanol, 0.05% Tween-80 in DDW), and DDW for 1 h. • Sex pheromone content is expressed as a percentage of the endogenous pheromone content obtained using control untreated moths (defined as 100%). Statistical analysis compared pheromone content in the presence of each peptide with that obtained with the corresponding solvents themselves (indicated by an asterisk).
FIG. 3A and FIG. 3B are graphs showing the dose response of Ac-A-dPhe-4 (3A) or Ac-A-dPhe-6 (3B) on inhibition of sex pheromone biosynthesis in Heliothis peltigera female moths. Peptides were applied in DDW for 1 h. • Sex pheromone content is expressed as a percentage of the endogenous pheromone content obtained using control untreated moths (defined as 100%). Statistical analysis compared pheromone content in the presence of each peptide at the indicated concentrations with that obtained with the solvent itself (indicated by an asterisk). A similar statistical analysis was also made against the pheromone content of untreated moths (indicated by #). […] Differences in the potency of the peptides at the indicated concentrations are depicted by letters.
FIG. 4. is a graph showing the time response of 1 nmol Ac-A-dPhe-4 and Ac-A-dPhe-6 (applied in DDW) on inhibition of sex pheromone biosynthesis in Heliothis peltigera female moths. • Sex pheromone content is expressed as a percentage of the endogenous pheromone content obtained using control untreated moths (defined as 100%). Statistical analysis compared pheromone content in the presence of each peptide at the indicated times with that obtained with the solvent itself at the same time point (indicated by an asterisk). […] Differences in the potency of the peptides at the indicated time points are depicted by letters. (Ac-A-dPhe-4: small letters; Ac-A-dPhe-6: capital letters).
FIG. 5A to FIG. 5C are graphs showing the effect of topically applied peptides on inhibition of sex pheromone biosynthesis in Heliothis peltigera female moths. • The tested peptides are those listed in Table 1 (1-6, respectively). Peptides were tested at a concentration of 1000 pmol (5A), 300 pmol (5B) or 100 pmol (5C) and were applied in DDW, DMSO and IIS for 7h. • Sex pheromone content is expressed as a percentage of the endogenous pheromone content obtained using control untreated moths (defined as 100%). Statistical analysis compared pheromone content in the presence of each peptide in a given solvent (DDW, DMSO or ITS) with that obtained with the solvents themselves (indicated by an asterisk).
a) Topical Application (TA)
This assay is used to determine cuticular penetrability.
The tested peptides are applied onto the insect (e.g. moths) at scotophase (when pheromone is naturally synthesized) in a given solvent for the indicated times.
Antagonistic activity was tested at a concentration of 10 pmol and the peptides were topically applied in two solvents: DDW and IIS (FIG. 2). […] Ac-A-dPhe-6 was the second best in IIS inhibiting pheromone biosynthesis by 74%.
Only minor differences in activity is observed as a function of a dose (with the exception of Ac-A-dPhe-4 at 1000 pmol, which inhibited pheromone production to a lesser extent of about 50%).
All experiments were carried out at the scotophase and the peptides were applied one hour before pheromone glands were excised (+5) and tested for pheromone content (at the 6th hour of the scotophase when the pheromone content is at its highest level). The high inhibition obtained under the tested conditions, indicates the extremely fast and high penetrability and bioactivity of the peptides of the invention. […]

Regarding “Acetyl-Arg-Tyr-Phe-Ser-Pro-[dPhe]-Leu-amide (Ac-RYFSP[dF]L-NH2; SMILES CC(=O)N[C@@H](CCCNC(=N)N)C(=O)N[C@@H](Cc1ccc(O)cc1)C(=O)N[C@@H](Cc1ccccc1)C(=O)N[C@@H](CO)C(=O)N1CCC[C@H]1C(=O)N[C@H](Cc1ccccc1)C(=O)N[C@@H](CC(C)C)C(N)=O) [Ac-dPhe-6]”, in assay [1], the “Melanotropic inhibitory activity, stimulator DH” value is given as 35%; the “Melanotropic inhibitory activity, stimulator LPK” value is 8%; the “Melanotropic inhibitory activity, stimulator PBAN” value was found to be 59%; the “Melanotropic inhibitory activity, stimulator PT” value is 100%.
Turning to “Acetyl-Ala-Ser-Pro-[dPhe]-Leu-amide (Ac-ASP[dF]L-NH2; SMILES CC(=O)N[C@@H](C)C(=O)N[C@@H](CO)C(=O)N1CCC[C@H]1C(=O)N[C@H](Cc1ccccc1)C(=O)N[C@@H](CC(C)C)C(N)=O) [Ac-A-dPhe-6]”, in assay [2], the “comparison of activity in IIS vs. tap water” value is “No differences”. In addition, the “inhibition of pheromone biosynthesis” value in assay [2] (topical, in IIS, 1 h) turned out to be 74%. The “potency as a function of application time” value in assay [2] (topical, 1 nmol in DDW, 1, 3 and 7 h) is “did not differ”. Besides, in assay [1], the “Melanotropic inhibitory activity, stimulator DH” value is on record as 29%; the “Melanotropic inhibitory activity, stimulator LPK” value is reported as 0%; the “Melanotropic inhibitory activity, stimulator PBAN” value is listed as 63%; the “Melanotropic inhibitory activity, stimulator PT” value is on record as 100%. Further, in assay [1], the “inhibition of melanin synthesis stimulated by LPK” value (“inhibition … by LPK” for short) was “inhibited LPK”, the “inhibition of melanin synthesis stimulated by PBAN” value (“inhibition … by PBAN” below) is given as “inhibited PBAN” and the “inhibition of melanin synthesis stimulated by PT” value (“inhibition … by PT” for short) is recorded as “inhibited PT”.
Take “Fmoc-Ala-Ser-Pro-[dPhe]-Leu-amide (Fmoc-ASP[dF]L-NH2; SMILES CC(C)C[C@H](NC(=O)[C@@H](Cc1ccccc1)NC(=O)[C@@H]1CCCN1C(=O)[C@H](CO)NC(=O)[C@H](C)NC(=O)OCC1c2ccccc2-c2ccccc21)C(N)=O) [Fmoc-A-dPhe-6]”: in assay [1], the “Melanotropic inhibitory activity, stimulator DH” value came to 35%; the “Melanotropic inhibitory activity, stimulator LPK” value is 100%; the “Melanotropic inhibitory activity, stimulator PBAN” value is recorded as 67%; the “Melanotropic inhibitory activity, stimulator PT” value was 100%.
“Cyclohexyl-Ala-Ser-Pro-[dPhe]-Leu-amide (Cyclohexyl-ASP[dF]L-NH2; SMILES CC(C)C[C@H](NC(=O)[C@@H](Cc1ccccc1)NC(=O)[C@@H]1CCCN1C(=O)[C@H](CO)NC(=O)[C@H](C)NC1CCCCC1)C(N)=O) [Cyc-A-dPhe-6]”: in assay [1], the “Melanotropic inhibitory activity, stimulator DH” value amounted to 15%; the “Melanotropic inhibitory activity, stimulator LPK” value was 100%; the “Melanotropic inhibitory activity, stimulator PBAN” value is given as 67%; the “Melanotropic inhibitory activity, stimulator PT” value is 26%. Also, in assay [1], the “inhibition … by LPK” value is “inhibited LPK” and the “inhibition … by PBAN” value was “inhibited PBAN”.
Take “Acetyl-Arg-Tyr-Phe-[dPhe]-Pro-Arg-Leu-amide (Ac-RYF[dF]PRL-NH2; SMILES CC(=O)N[C@@H](CCCNC(=N)N)C(=O)N[C@@H](Cc1ccc(O)cc1)C(=O)N[C@@H](Cc1ccccc1)C(=O)N[C@H](Cc1ccccc1)C(=O)N1CCC[C@H]1C(=O)N[C@@H](CCCNC(=N)N)C(=O)N[C@@H](CC(C)C)C(N)=O) [Ac-dPhe-4]”: in assay [1], the “Melanotropic inhibitory activity, stimulator DH” value is on record as 22%; the “Melanotropic inhibitory activity, stimulator LPK” value was 51%; the “Melanotropic inhibitory activity, stimulator PBAN” value was 70%; the “Melanotropic inhibitory activity, stimulator PT” value worked out at 100%. Besides, in assay [1], the “inhibition … by PBAN” value is given as “inhibited PBAN” and the “inhibition … by PT” value was “inhibited PT”.
Take “Fmoc-Ala-[dPhe]-Pro-Arg-Leu-amide (Fmoc-A[dF]PRL-NH2; SMILES CC(C)C[C@H](NC(=O)[C@H](CCCNC(=N)N)NC(=O)[C@@H]1CCCN1C(=O)[C@@H](Cc1ccccc1)NC(=O)[C@H](C)NC(=O)OCC1c2ccccc2-c2ccccc21)C(N)=O) [Fmoc-A-dPhe-4]”: the “comparison of activity in IIS vs. tap water” value in assay [2] is given as “No differences”. Besides, in assay [1], the “Melanotropic inhibitory activity, stimulator DH” value was 28%; the “Melanotropic inhibitory activity, stimulator LPK” value is listed as 100%; the “Melanotropic inhibitory activity, stimulator PBAN” value came to 68%; the “Melanotropic inhibitory activity, stimulator PT” value turned out to be 100%.
On to “Arg-Tyr-Phe-Ser-Pro-[dPhe]-Leu-amide (RYFSP[dF]L-NH2; N-terminus assumed; SMILES CC(C)C[C@H](NC(=O)[C@@H](Cc1ccccc1)NC(=O)[C@@H]1CCCN1C(=O)[C@H](CO)NC(=O)[C@H](Cc1ccccc1)NC(=O)[C@H](Cc1ccc(O)cc1)NC(=O)[C@@H](N)CCCNC(=N)N)C(N)=O) [dPhe-6]”, for which, in assay [2] (topical, in DDW, 1 h), the “lowering of pheromone content compared to the solvent” value is recorded as “failed to lower pheromone content”. For the same substance, in assay [1], the “Melanotropic inhibitory activity, stimulator DH” value is recorded as 15%; the “Melanotropic inhibitory activity, stimulator LPK” value is on record as 78%; the “Melanotropic inhibitory activity, stimulator PBAN” value is on record as 49%; the “Melanotropic inhibitory activity, stimulator PT” value is 74%.
As to “Arg-Tyr-Phe-[dPhe]-Pro-Arg-Leu-amide (RYF[dF]PRL-NH2; N-terminus assumed; SMILES CC(C)C[C@H](NC(=O)[C@H](CCCNC(=N)N)NC(=O)[C@@H]1CCCN1C(=O)[C@@H](Cc1ccccc1)NC(=O)[C@H](Cc1ccccc1)NC(=O)[C@H](Cc1ccc(O)cc1)NC(=O)[C@@H](N)CCCNC(=N)N)C(N)=O) [dPhe-4]”, the “lowering of pheromone content compared to the solvent” value in assay [2] (topical, in IIS, 1 h) is reported as “failed to lower pheromone content”. In assay [2] (topical, 300 pmol, 7 h, DDW, IIS, DMSO), the “activity as a function of carrier” value was “lower activity in DDW and IIS compared to DMSO”. For the same substance, in assay [1], the “Melanotropic inhibitory activity, stimulator DH” value is 33%; the “Melanotropic inhibitory activity, stimulator LPK” value is given as 10%; the “Melanotropic inhibitory activity, stimulator PBAN” value is given as 18%; the “Melanotropic inhibitory activity, stimulator PT” value is listed as 59%.
As to “Acetyl-Ala-[dPhe]-Pro-Arg-Leu-amide (Ac-A[dF]PRL-NH2; SMILES CC(=O)N[C@@H](C)C(=O)N[C@H](Cc1ccccc1)C(=O)N1CCC[C@H]1C(=O)N[C@@H](CCCNC(=N)N)C(=O)N[C@@H](CC(C)C)C(N)=O) [Ac-A-dPhe-4]”, the “comparison of activity in IIS vs. tap water” value in assay [2] was “No differences”. Also, in assay [2] (topical in DDW, 1 h, 1000 pmol), the “inhibition of pheromone production” value was “about 50%”. In addition, the “inhibition of pheromone biosynthesis” value in assay [2] (topical, in DDW, 1 h) stood at 83%. For the same substance, in assay [2] (topical, 7 h, in IIS and DMSO, 100, 300, 1000 pmol), the “activity as a function of the dose” value was “less active at 100 pmol compared to 300 and 1000 pmol”. Besides, in assay [1], the “Melanotropic inhibitory activity, stimulator DH” value is given as 6%; the “Melanotropic inhibitory activity, stimulator LPK” value is 31%; the “Melanotropic inhibitory activity, stimulator PBAN” value was determined as 54%; the “Melanotropic inhibitory activity, stimulator PT” value is 100%. Also, in assay [1], the “inhibition … by LPK” value was “inhibited LPK”, the “inhibition … by PBAN” value was “inhibited PBAN” and the “inhibition … by PT” value was “inhibited PT”.
